Literature values, collected in patent publication US20120259389A1, “TREATMENT OF POSTPRANDIAL HYPERGLYCEMIA BY GASTRIC ELECTRICAL STIMULATION” (priority 2009, published 2012).

Test system: ZDF rats
Settings: Type II diabetic ZDF rats; 300 mg/kg/day for 28 days; reported by Uhles et al. 2009

CN(C)C(=N)N=C(N)N [Metformin]
reduction in mean change in blood glucose AUC: 21%
